According to US6995143B2, “Macrolides with antibacterial activity” (Basilea Pharmaceutica AG, priority 2002, dated 2006):
In brackets after ≈: the same amount, converted by molar mass.

Tests used:
Type in all cases: cell-based
[1] = test system: Escherichia coli ATCC 25922; experiment: MIC, standard microdilution technique
Summary of the method: (§1)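 Susceptibility testing used the NCCLS fifth-edition approved standard for aerobic organisms (M7-A5).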

[2] = test system: Staphylococcus aureus 1086; experiment: MIC, standard microdilution technique
Summary of the method: as §1

[3] = test system: Streptococcus pneumoniae ¼; experiment: MIC, standard microdilution technique
Summary of the method: as §1

[4] = test system: Streptococcus pneumoniae SL199T; experiment: MIC, standard microdilution technique
Summary of the method: as §1

[5] = test system: Staphylococcus aureus 745; experiment: MIC, standard microdilution technique
Summary of the method: as §1

[6] = test system: Streptococcus pneumoniae l/l; experiment: MIC, standard microdilution technique
Summary of the method: as §1

[7] = test system: Staphylococcus aureus ATCC 29213; experiment: MIC, standard microdilution technique
Summary of the method: as §1

[8] = test system: Streptococcus pneumoniae 12288; experiment: MIC, standard microdilution technique
Summary of the method: as §1

[9] = test system: Haemophilus influenzae 12214; experiment: MIC, standard agar dilution method using HTM medium
Summary of the method: (§2)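 The reported MIC comes from dilution testing done to NCCLS guidance M7-A5. Organism: Haemophilus influenzae.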

[10] = test system: Haemophilus influenzae QK50; experiment: as above
Summary of the method: as §2

[11] = test system: Haemophilus influenzae B1501; experiment: as above
Summary of the method: as §2

[12] = test system: Haemophilus influenzae QK12/87; experiment: as above
Summary of the method: as §2

CC[C@H]1OC(=O)[C@H](C)C(=O)[C@H](C)[C@@H](O[C@@H]2O[C@H](C)C[C@H](N(C)C)[C@H]2O)[C@](C)(OC)C[C@@H](C)C(=O)[C@H](C)[C@H]2[C@@H](SCC(=O)c3csc4ccccc34)C(=O)O[C@@]21C [Example 54]
minimum inhibitory concentration (MIC), Strain D [1]: >32 µg/mL | minimum inhibitory concentration (MIC), Strain B [2]: 0.5 µg/mL (≈ 0.611 µM) | minimum inhibitory concentration (MIC), Strain F [3]: 32 µg/mL (≈ 39.1 µM) | minimum inhibitory concentration (MIC), Strain G [4]: >32 µg/mL | minimum inhibitory concentration (MIC), Strain C [5]: >32 µg/mL | minimum inhibitory concentration (MIC), Strain E [6]: <=0.06 μg/ml | minimum inhibitory concentration (MIC), Strain A [7]: 1 µg/mL (≈ 1.22 µM) | minimum inhibitory concentration (MIC), Strain H [8]: >32 µg/mL | minimum inhibitory concentration (MIC), Strain K [9]: 16 µg/mL (≈ 19.6 µM) | minimum inhibitory concentration (MIC), Strain L [10]: 32 µg/mL (≈ 39.1 µM) | minimum inhibitory concentration (MIC), Strain M [11]: 8 µg/mL (≈ 9.78 µM) | minimum inhibitory concentration (MIC), Strain I [12]: 16 µg/mL (≈ 19.6 µM)

CC[C@H]1OC(=O)[C@H](C)C(=O)[C@H](C)[C@@H](O[C@@H]2O[C@H](C)C[C@H](N(C)C)[C@H]2O)[C@](C)(OC)C[C@@H](C)C(=O)[C@H](C)[C@H]2[C@@H](SCC(=O)Nc3ccc(C)c(C)c3)C(=O)O[C@@]21C [Example 55]
minimum inhibitory concentration (MIC), Strain D [1]: >32 µg/mL | minimum inhibitory concentration (MIC), Strain B [2]: 0.125 µg/mL (≈ 0.155 µM) | minimum inhibitory concentration (MIC), Strain F [3]: <=0.06 μg/ml | minimum inhibitory concentration (MIC), Strain G [4]: 0.25 µg/mL (≈ 0.311 µM) | minimum inhibitory concentration (MIC), Strain C [5]: >32 µg/mL | minimum inhibitory concentration (MIC), Strain E [6]: <=0.06 μg/ml | minimum inhibitory concentration (MIC), Strain A [7]: 0.25 µg/mL (≈ 0.311 µM) | minimum inhibitory concentration (MIC), Strain H [8]: 2 µg/mL (≈ 2.48 µM) | minimum inhibitory concentration (MIC), Strain K [9]: 8 µg/mL (≈ 9.94 µM) | minimum inhibitory concentration (MIC), Strain L [10]: 16 µg/mL (≈ 19.9 µM) | minimum inhibitory concentration (MIC), Strain M [11]: 8 µg/mL (≈ 9.94 µM) | minimum inhibitory concentration (MIC), Strain I [12]: 8 µg/mL (≈ 9.94 µM)

CC[C@H]1OC(=O)[C@@](C)(F)C(=O)[C@H](C)[C@@H](O[C@@H]2O[C@H](C)C[C@H](N(C)C)[C@H]2O)[C@](C)(OC)C[C@@H](C)C(=O)[C@H](C)[C@H]2[C@@H](S(=O)(=O)CCCn3cnc4c(N)ncnc43)C(=O)O[C@@]21C [Example 58]
minimum inhibitory concentration (MIC), Strain D [1]: >32 µg/mL | minimum inhibitory concentration (MIC), Strain B [2]: 0.5 µg/mL (≈ 0.575 µM) | minimum inhibitory concentration (MIC), Strain F [3]: <=0.06 μg/ml | minimum inhibitory concentration (MIC), Strain G [4]: 0.5 µg/mL (≈ 0.575 µM) | minimum inhibitory concentration (MIC), Strain C [5]: >32 µg/mL | minimum inhibitory concentration (MIC), Strain E [6]: <=0.06 μg/ml | minimum inhibitory concentration (MIC), Strain A [7]: 0.5 µg/mL (≈ 0.575 µM) | minimum inhibitory concentration (MIC), Strain H [8]: 8 µg/mL (≈ 9.21 µM) | minimum inhibitory concentration (MIC), Strain K [9]: 4 µg/mL (≈ 4.6 µM) | minimum inhibitory concentration (MIC), Strain L [10]: 4 µg/mL (≈ 4.6 µM) | minimum inhibitory concentration (MIC), Strain M [11]: 4 µg/mL (≈ 4.6 µM) | minimum inhibitory concentration (MIC), Strain I [12]: 4 µg/mL (≈ 4.6 µM)

(3R or S, 3aR, 4R or S, 6R, 8R, 9R, 10R, 12S, 15R, 15aS) -3-[[3-[6-Amino-9H-purine-9-yl]propyl]thio]-15-ethyl-12-fluorooctahydro-8-methoxy-4,6,8,10,12,15a-hexamethyl-3-9-[[3,4,6-trideoxy-3-(dimethylamino)-β-D-xylo-hexopyranosyl]oxy]-2H-furo [2,3-c] oxacyclotetradecin-2,5,11,13 (3H,6H,12H)-tetrone [Example 13]
minimum inhibitory concentration (MIC), Strain D [1]: 32 µg/mL | minimum inhibitory concentration (MIC), Strain B [2]: <=0.06 μg/ml | minimum inhibitory concentration (MIC), Strain F [3]: <=0.06 μg/ml | minimum inhibitory concentration (MIC), Strain G [4]: <=0.06 μg/ml | minimum inhibitory concentration (MIC), Strain C [5]: >32 µg/mL | minimum inhibitory concentration (MIC), Strain E [6]: <=0.06 μg/ml | minimum inhibitory concentration (MIC), Strain A [7]: <=0.06 μg/ml | minimum inhibitory concentration (MIC), Strain H [8]: 0.25 µg/mL | minimum inhibitory concentration (MIC), Strain K [9]: 2 µg/mL | minimum inhibitory concentration (MIC), Strain L [10]: 2 µg/mL | minimum inhibitory concentration (MIC), Strain M [11]: 2 µg/mL | minimum inhibitory concentration (MIC), Strain I [12]: 2 µg/mL

(3R or S, 3aS, 4R or S, 6R, 8R, 9R, 10R, 12R, 15R, 15aS) -15-Ethylhexadecahydro-4,6,8,10,12,15a-hexamethyl-2,5,11,13-tetraoxo-8-[[(2E)-3-(3-quinolyl)-2-propen-1-yl]oxy]-9-[[3,4,6-trideoxy-3-(dimethylamino)-β-D-xylo-hexopyranosyl]oxy]-2H-furo [2,3-c] oxacyclotetradecin-3-carbonitrile [Example 15]
minimum inhibitory concentration (MIC), Strain D [1]: >32 µg/mL | minimum inhibitory concentration (MIC), Strain B [2]: <=0.06 μg/ml | minimum inhibitory concentration (MIC), Strain F [3]: 0.25 µg/mL | minimum inhibitory concentration (MIC), Strain G [4]: 2 µg/mL | minimum inhibitory concentration (MIC), Strain C [5]: 32 µg/mL | minimum inhibitory concentration (MIC), Strain E [6]: <=0.06 μg/ml | minimum inhibitory concentration (MIC), Strain A [7]: <=0.06 μg/ml | minimum inhibitory concentration (MIC), Strain H [8]: 16 µg/mL | minimum inhibitory concentration (MIC), Strain K [9]: 4 µg/mL | minimum inhibitory concentration (MIC), Strain L [10]: 2 µg/mL | minimum inhibitory concentration (MIC), Strain M [11]: 2 µg/mL | minimum inhibitory concentration (MIC), Strain I [12]: 4 µg/mL
